This is an account of results in patent US20220280513A1, “ENHANCING THE ANTIVIRAL EFFICACY OF RNA VIRUS INHIBITION BY COMBINATION WITH MODULATORS OF PYRIMIDINE METABOLISM” (The Board of Trustees of the Leland Stanford Junior …, priority 2019, published 2022).

The target of one assay is T1, recombinant human UCK2 (Homo sapiens, UniProt Q9BZX2).
T1 construct: 6xHis (C); made in house; host or cells: E. coli BL21(DE3)
T1 sequence (Q9BZX2 1-261): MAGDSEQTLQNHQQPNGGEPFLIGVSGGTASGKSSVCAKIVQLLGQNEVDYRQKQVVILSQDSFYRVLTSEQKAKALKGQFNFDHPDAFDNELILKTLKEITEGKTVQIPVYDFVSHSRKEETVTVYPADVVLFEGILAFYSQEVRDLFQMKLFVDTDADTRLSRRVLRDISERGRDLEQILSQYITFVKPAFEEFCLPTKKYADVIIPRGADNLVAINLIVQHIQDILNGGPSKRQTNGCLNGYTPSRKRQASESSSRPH
Description: In vitro enzyme activity assay with recombinant human UCK2 (PK/LDH-coupled, UV 340 nm). Type of assay: biochemical. An excerpt: In order to guide our SAR studies, we developed an enzymatic assay to evaluate the inhibitory effect of each CPU analog against recombinant human UCK2, which was expressed and purified in E. coli. A continuous assay system was optimized by coupling UCK2 activity to the pyruvate kinase (PK) reaction, which in turn was coupled to lactate dehydrogenase (LDH). Overall reaction progress was continuously monitored by detecting the UV absorption change at 340 nm, which was correlated with the ATP consumption by UCK2. The effect of 250 μM of each CPU analog on UCK2 activity was evaluated in the presence of 50 μM uridine. […] We then individually measured the steady state kinetic parameters of UCK2 using uridine, CPU and 5-F-CPU as substrates. Their KM values were 86, 25, and 41 μM, and their kcat/KM values were 2.6×10^5, 1.5×10^5, and 7.3×10^4 s^−1 M^−1 (FIG. 5B).
Cloning, expression and purification of recombinant human UCK2 and CMPK1: Uridine cytidine kinase 2 (UCK2) was cloned into the pET-21a(+) vector using Ndel and Notl as restriction sites. […] The resulting plasmid was transformed into E. coli BL21(DE3) cells by electroporation, recovered in SOC at 37° C. for 1 h and plated onto LB agar plates with kanamycin overnight at 37° C. A single, isolated colony was inoculated into 30 mL LB supplemented with 50 μg/mL kanamycin and grown at 37° C. with shaking for 15 h. The next day, these cells were used to inoculate 1 L autoclaved LB with 50 μg/mL kanamycin. The flask was shaken at 37° C. When an optical density (OD600) of 0.7 was reached, protein expression was induced with 0.5 mM isopropyl β-D-1-thiogalactopyranoside (IPTG). The temperature was changed to 18° C. and flasks were shaken for an additional 15 h. The cell pellets were collected by spinning the media at 5000 rpm for 10 min. The pellets obtained were frozen by liquid nitrogen and stored in −80° C. for protein purification. Cell pellets were thawed and resuspended in lysis buffer containing Tris (40 mM, pH 7.5), NaCl (10 mM), imidazole (10 mM), DTT (1 mM). Cells were lysed by sonication and centrifuged at 25,000 g for 1 h. The supernatant was incubated with a slurry of Ni-NTA resin for 1 h at 4° C. and loaded onto a column. The nickel column wash buffer was Tris (40 mM, pH 7.5), NaCl (10 mM), DTT (1 mM) and each wash step contained increasing concentrations of imidazole (10, 50, or 250 mM). After SDS-PAGE confirmation of the protein fractions, protein was further purified using fast protein liquid chromatography (FPLC) using buffer A (50 mM Tris-HCl pH 8, 1 mM dithiothreitol (DTT), 10% glycerol) and elution buffer B (50 mM Tris-HCl pH 8, 1mM dithiothreitol (DTT), 10% glycerol with 500 mM NaCl) with changing gradient over a 20 minute from 2% to 100% Buffer B. FPLC eluents containing the protein was concentrated using Am icon centrifugal filter with 3K cut-off and the enzyme was stored in storage buffer (50 mM Tris-HCl pH 7.5, 10% glycerol). Human cytidine monophosphate kinase 1 (CMPK1) was purified as previously described (Deans et al., 2016).
In vitro enzyme activity assays with recombinant human UCK2: To continuously monitor reaction progress spectrophotometrically, ATP hydrolysis was coupled to NADH oxidation via pyruvate kinase (PK) and lactate dehydrogenase (LDH). Reactions were conducted at room temperature in 100 μL in 96-well plates (Greiner Bio-One, UV-Star, Half Area). Mixtures contained 20 mM HEPES (pH 7.2), 100 mM KCl, 2 mM MgCl2, 300 μM ATP, 0-500 μM uridine, 0-500 μM CPU analogs, 10 nM UCK2, 1 mM phosphoenolpyruvate, 500 μM NADH and 20 units/mL of PK and LDH. Progress was monitored in the linear region using a Biotek Synergy HT and kinetic and inhibition constants were determined using GraphPad Prism 7 (GraphPad Software).

The subject of another assay is DENV-2 virus. Kind of assay: DENV antiviral assay, DENV-Luc replication in A549 cells (FIGS. 8 and 9). Type of assay: cell-based, dengue serotype 2 (DENV-2) strain 16681. Here is the method:
DENV-Luc reporter virus generation: The design of the pDENV-Luc infectious clone derived from dengue serotype 2 (DENV-2) strain 16681 was described in detail by Marceau et al (Marceau et al., 2016). The plasmid was linearized with Xbal and in vitro transcribed into the genomic RNA of DENV-Luc virus using the T7 Megascript Kit (Ambion) in the presence of m7G(5′)ppp(5′)G RNA Cap Structure Analog (NEB). 5 μg DENV-Luc RNA was electroporated into 2×10^6 Vero cells. The transfected cells were resuspended with Dulbecco's modified Eagle's medium (DMEM; Invitrogen) with 10% FBS and 100 U/ml penicillin-streptomycin and transferred into a T-175 flask incubated at 37° C. with 5% CO2. Supernatants were collected and replenished with fresh medium every 24 h from day 17 to 24 post-transfection, pooled together, clarified by centrifugation and stored in aliquots at −80° C. The amount of infectious DENV-Luc virus in the stock was titrated using the TCID50 assay and calculated by the Spearman & Kärber algorithm as described previously (Hierholzer and Killington, 1996).
DENV antiviral assays (For FIGS. 8 and 9): A549 cells were plated overnight at 5,000 cells/well in 96-well plates in complete DMEM and incubated for 24 h at 37° C. Cells were then treated with pyrimidine de novo synthesis inhibitors, and/or salvage inhibitors, and/or R1479 in DMEM supplemented with 20 μM uridine. Four hours after drug addition, cells were infected with DENV-2 virus at a MOI=0.1. After 72 h, DENV-Luc replication was monitored by the production of Renilla luciferase, which was measured using the Renilla-Glo Luciferase Assay System (Promega) according to the specifications of the manufacturer. For the accompanying cell viability assay, A549 cells were seeded at 5,000 cells/well in 96-well plates in complete DMEM and incubated for 24 h at 37° C. Cell were then treated with pyrimidine de novo synthesis inhibitors, and/or salvage inhibitors, and/or R1479 in DMEM supplemented with 20 μM uridine. Following 48 h treatment, cell viability was monitored by ATP levels, which was measured using the CellTiter-Glo Luciferase Assay System (Promega) according to the specifications of the manufacturer.

Consider `O=c1ccn([C@@H]2C=C(CO)[C@@H](O)[C@H]2O)c(=O)[nH]1` [CPU, 1-((1R,4R,5S)-4,5-dihydroxy-3-(hydroxymethyl)cyclopent-2-en-1-yl)pyrimidine-2,4(1H,3H)-dione], for which the “UCK2 substrate or not (ATP consumption)” value on recombinant human UCK2 (250 μM analog in the presence of 50 μM uridine) is listed as “substrates of UCK2”. Moreover, the “rate of UMP synthesis” value at recombinant human UCK2 (added to assay mixture containing UCK2, uridine (50 μM) and ATP) is on record as “dose-dependent decrease”. In addition, the “dengue virus replication, combination” value in the assay on DENV-2 virus (CPU (500 μM) combined with 1 μM GSK983, 20 μM uridine) is “suppressed dengue virus”. Besides, in the assay on DENV-2 virus (single agents, 20 μM uridine), the “antiviral activity as single agent” value is recorded as “neither GSK983 nor CPU were effective”.
